Measurements reported in patent publication US20210221822A1, “TRICYCLIC DERIVATIVES INHIBITOR, PREPARATION METHOD, AND APPLICATIONS THEREOF” (Jiangsu Hansoh Pharmaceutical Group Co., Ltd., priority 2018, published 2021).
Read-outs that look alike come from different tables or passages of the source.

Columns and labels:
[1] = target: T1, PI3Kα (Homo sapiens, UniProt P42336); test: ADP-Glo lipid kinase assay, PI3Kα kinase activity; format: biochemical; settings: for IC50: ADP-Glo, 0.1 nM enzyme, 120 min, 50 μM ATP; for Selectivity of PI3Kα vs PI3Kβ: ratio of IC50 PI3Kβ to IC50 PI3Kα; for Selectivity of PI3Kα vs PI3Kγ: ratio of IC50 PI3Kγ to IC50 PI3Kα; for Selectivity of PI3Kα vs PI3Kδ: ratio of IC50 PI3Kδ to IC50 PI3Kα
T1 construct: purchased Promega V1721
Experimental: (§1) Experimental method: Promega's ADP-Glo lipid kinase assay method (Promega #V9102) was applied in this experiment. Lipid kinase PI3Kα/β/γ/δ catalyzed the generation of ADP from ATP in the presence of the substrate PIP2: 3PS and ATP. The lipid kinase activity was characterized by measuring the ADP content in the reaction, and the half inhibitory concentration IC50 of the compound on inhibiting PI3Kα/β/γ/δ kinase activity was thus obtained.
(§2) The kinase reaction was carried out in a white 384-well plate (Perkin Elmer #6007299). 2 μL of the compound solution of different concentrations diluted with ddH2O containing 1% DMSO was added to each well. 2 μL of ddH2O containing 1% DMSO was added to the positive control well. 2 μL of 0.1-2 nM PI3K kinase solution diluted with 5× kinase buffer (HEPES 250 mM, MgCl2 15 mM, NaCl 250 mM, BSA 0.05%) was added to each well. 2 μL of 5× kinase buffer was added to the negative control well. 4 μL of 50 μM substrate PIP2: 3PS (Promega #V1701) formulated with 10× Dilution buffer and ddH2O was added to all wells. Finally, 2 μL of […] ATP solution diluted with water was added to start the reaction. After the reaction was carried out at room temperature for 90 to 120 minutes, 10 μL of ADP-Glo Reagent (containing 10 mM MgCl2) was added to each well, and reacted at room temperature for 60 minutes to remove excess ATP in the reaction. 20 μL of Kinase Detection Reagent was added to each well, and reacted at room temperature in the dark for 20 minutes. The chemiluminescence value was measured by the BioTek Synergy H1 microplate reader.
(§3) The percentage inhibition data of the compound-treated well was calculated through the positive control well (DMSO control well) and negative control well (no kinase added) on the plate {% inhibition rate=100−[(test compound value−negative control value)]/(positive control value−negative control value)×100}. The IC50 value was calculated by fitting the data of different concentrations and corresponding percentage inhibition rates to a four-parameter nonlinear logic formula with GraphPad prism.

[2] = target: T2, PI3Kβ (Homo sapiens, UniProt P42338); test: ADP-Glo lipid kinase assay, PI3Kβ kinase activity; format: biochemical; settings: 0.4 nM enzyme, 90 min, 100 μM ATP
T2 construct: purchased Carna 11-102
Experimental: as §1, §2, §3

[3] = target: T3, PI3Kγ (Homo sapiens, UniProt P48736); test: ADP-Glo lipid kinase assay, PI3Kγ kinase activity; format: biochemical; settings: 0.4 nM enzyme, 120 min, 50 μM ATP
T3 construct: purchased Thermofisher PV4786
Experimental: as §1, §2, §3

[4] = target: T4, PI3Kδ (Homo sapiens, UniProt O00329); test: ADP-Glo lipid kinase assay, PI3Kδ kinase activity; format: biochemical; settings: 0.1 nM enzyme, 90 min, 100 μM ATP
T4 construct: purchased Carna 11-103
Experimental: as §1, §2, §3

[5] = test system: PI3Kα mutant cancer cells HCC1954 (H1047R); test: Cell Titer-Glo proliferation inhibition, HCC1954; format: cell-based; settings: Homo sapiens, 48 to 96 hours
Experimental: (§4) Experimental method: The proliferation inhibitory effect of the compounds of the examples on PI3Kα mutant cancer cell lines HCC1954, HGC-27 and MKN1 was determined by Cell Titer-Glo method. The cell lines were cultured in RPMI 1640 medium (Gibco #22400089) containing 10% FBS (Gibco #10091148) and 1% P/S (Hyclone #SV30010) at 37° C. and 5% CO2. Before the experiment, the cells were collected and counted, and then the cell density was adjusted. The cells were inoculated in a white 96-well plate (Corning #3610) at a density of 1000 to 10000 cells/well, and incubated in an incubator at 37° C., 5% CO2 overnight. The compound solution of different concentrations was added, and corresponding vehicle control was set at the same time. The cell plate was further incubated in an incubator at 37° C., 5% CO2 for 48 to 96 hours. The cell plate and its content were equilibrated to room temperature. 20 to 100 μL of Cell Titer-Glo solution (Promega #G7573) was added to each well, and the plate was shaked well and incubated at room temperature in the dark for 5 to 30 minutes. The chemiluminescence value was measured by the BioTek SynergyH1 microplate reader.
(§5) The percentage inhibition data of the well treated by the compounds of the examples was calculated through the vehicle control well on the plate {% inhibition rate=100−(test compound value/vehicle control value)×100}. The IC50 value was calculated by fitting the data of different concentrations and corresponding percentage inhibition rates to a four-parameter nonlinear logic formula with GraphPad prism.

[6] = test system: PI3Kα mutant cancer cells MKN1 (E545K); test: Cell Titer-Glo proliferation inhibition, MKN1; format: cell-based; settings: Homo sapiens, MKN-1, 48 to 96 hours
Experimental: as §4, §5

[7] = test system: PI3Kα mutant cancer cells HGC-27 (E542K); test: Cell Titer-Glo proliferation inhibition, HGC-27; format: cell-based; settings: Homo sapiens, 48 to 96 hours
Experimental: as §4, §5

[8] = Toxicity test of a 7-day repeatedly intragastric administration in SD rats; format: in vivo
Excerpt: (§6) 1) In the experiment, 112 rats (56 rats/sex) were divided into 14 groups by sex and body weight, wherein 70 rats were used for toxicology study (groups 1 to 7, 5 rats/sex/group) and 42 rats were used for toxicokinetics study (groups 8 to 14, 3 rats/sex/group).
2) As the vehicle control group, the animals in groups 1 and 8 were intragastrically administered 20% aqueous SBE-(3-CD (Captisol) solution.
(§7) 3) The animals in groups 2 and 9, groups 3 and 10, and groups 4 and 11 were intragastrically administered GDC-0077 at 10, 30 and 60 mg/kg, respectively.
(§8) 4) The animals in groups 5 and 12, groups 6 and 13, and groups 7 and 14 were intragastrically administered the compound of Example 51 at 10, 30 and 60 mg/kg, respectively.
(§9) 5) The animals were administered once a day for 7 consecutive days (the animals in groups 7 and 14 were administered for 6 consecutive days).
6) The administration volume was 10 mL/kg.
(§10) 7) During the experiment, items such as clinical observation, body weight, food intake, clinicopathological indicators (blood cell count, coagulation function, blood biochemistry), toxicokinetics and the like were studied.
8) All animals were euthanized on Day 8 (the animals in groups 7 and 14 were euthanized after administration on Day 6).
9) During the experiment, gross anatomy observation was carried out on animals in groups 1 to 7, animals in group 14 and dead animals (including animals in toxicokinetics study), and histopathological examination was carried out on abnormal tissues, gastrointestinal tissues (such as colon and cecum) and immune tissues (such as thymus).

[9] = Toxicokinetics in the 7-day repeated intragastric administration study in SD rats; format: in vivo, Sprague-Dawley (SD) rats; settings: for AUC: Sprague-Dawley, rat, plasma, po, after the last administration, read-out: average system exposure AUC
Excerpt: Liquid chromatography−mass spectrometry (detector: API4000, electrospray source (ESI) positive ion mode, column: Agilent ZORBAX XDB-C18 (3.5 μm, 2.1×50 mm)), which was used for the biological analysis of plasma sample.
as §6, §7, §8, §9, §10

[10] = Pharmacokinetic (PK) assay in mice; format: in vivo; settings: male, Balb/c, mouse, plasma, po, single intragastric 5 mg/kg
Experimental: The pharmacokinetic assay of the preferred compounds of the examples of the present invention in mice was carried out in Balb/c male mice (Shanghai Jiesijie Laboratory Animal Co., LTD). • Administration mode: single intragastric administration. • Administration dose: 5 mg/10 ml/kg (body weight). • Formulation: the compound was dissolved in 0.5% CMC-Na by ultrasound to obtain a clear solution or homogeneous suspension. • Sampling points: 0.5, 1, 2, 4, 6, 8 and 24 hours after administration. • Sample process: • 1) 0.1 mL of blood was taken from the orbit, placed in a K2-EDTA tube, and centrifuged for 5 to 20 minutes at room temperature at 1000 to 3000×g to separate the plasma, which was then stored at −80° C. • 2) 160 uL of acetonitrile was added to 40 uL of plasma sample for precipitation, and then the mixture was centrifuged for 5 to 20 minutes at 500 to 2000×g. • 3) 100 uL of processed supernatant was taken and analyzed by LC/MS/MS assay to determine the concentration of the test compound. • LC-MS/MS assay: • Liquid chromatography condition: Shimadzu LC-20AD pump • Mass spectrometry condition: AB Sciex API 4000 mass spectrometer • Chromatographic column: phenomenex Gemiu 5 μm C18 50×4.6 mm • Mobile phase: solution A was 0.1% aqueous formic acid solution, and solution B was acetonitrile • Flow rate: 0.8 mL/min • Elution time: 0-4 minutes gradient elution • Pharmacokinetics: […]
The main parameters were calculated using WinNonlin 6.1.

[11] = SD rats, 10, 30 and 60 mg/kg (low, middle, high dose)

T3 sequence (P48736 whole entry): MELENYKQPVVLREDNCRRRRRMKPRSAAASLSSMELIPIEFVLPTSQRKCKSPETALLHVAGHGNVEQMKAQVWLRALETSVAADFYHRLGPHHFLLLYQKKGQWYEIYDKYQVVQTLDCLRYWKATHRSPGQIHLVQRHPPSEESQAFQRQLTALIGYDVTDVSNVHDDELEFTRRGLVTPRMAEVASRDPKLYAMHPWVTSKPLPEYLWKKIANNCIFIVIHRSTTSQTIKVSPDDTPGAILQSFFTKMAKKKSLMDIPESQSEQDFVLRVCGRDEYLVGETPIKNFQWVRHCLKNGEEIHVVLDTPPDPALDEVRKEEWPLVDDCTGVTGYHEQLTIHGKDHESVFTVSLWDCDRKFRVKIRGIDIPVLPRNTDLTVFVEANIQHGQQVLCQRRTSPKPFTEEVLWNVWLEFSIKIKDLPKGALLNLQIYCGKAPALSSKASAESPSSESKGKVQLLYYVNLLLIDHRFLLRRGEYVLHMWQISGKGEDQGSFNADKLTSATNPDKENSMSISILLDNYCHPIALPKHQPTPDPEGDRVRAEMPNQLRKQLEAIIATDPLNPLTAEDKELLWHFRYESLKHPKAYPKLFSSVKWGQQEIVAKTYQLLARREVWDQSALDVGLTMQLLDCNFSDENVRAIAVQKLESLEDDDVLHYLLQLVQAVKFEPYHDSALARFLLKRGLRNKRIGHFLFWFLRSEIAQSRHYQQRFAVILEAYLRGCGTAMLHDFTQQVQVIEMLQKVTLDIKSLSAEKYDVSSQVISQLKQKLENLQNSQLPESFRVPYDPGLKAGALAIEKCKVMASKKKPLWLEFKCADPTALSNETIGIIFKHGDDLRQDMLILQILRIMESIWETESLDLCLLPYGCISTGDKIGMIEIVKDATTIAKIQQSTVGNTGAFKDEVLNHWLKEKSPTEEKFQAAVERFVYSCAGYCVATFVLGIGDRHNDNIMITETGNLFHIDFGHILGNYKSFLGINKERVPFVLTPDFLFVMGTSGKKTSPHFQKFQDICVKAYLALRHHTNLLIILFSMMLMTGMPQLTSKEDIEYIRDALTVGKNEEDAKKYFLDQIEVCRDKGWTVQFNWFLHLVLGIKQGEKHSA
T2 sequence (P42338 whole entry): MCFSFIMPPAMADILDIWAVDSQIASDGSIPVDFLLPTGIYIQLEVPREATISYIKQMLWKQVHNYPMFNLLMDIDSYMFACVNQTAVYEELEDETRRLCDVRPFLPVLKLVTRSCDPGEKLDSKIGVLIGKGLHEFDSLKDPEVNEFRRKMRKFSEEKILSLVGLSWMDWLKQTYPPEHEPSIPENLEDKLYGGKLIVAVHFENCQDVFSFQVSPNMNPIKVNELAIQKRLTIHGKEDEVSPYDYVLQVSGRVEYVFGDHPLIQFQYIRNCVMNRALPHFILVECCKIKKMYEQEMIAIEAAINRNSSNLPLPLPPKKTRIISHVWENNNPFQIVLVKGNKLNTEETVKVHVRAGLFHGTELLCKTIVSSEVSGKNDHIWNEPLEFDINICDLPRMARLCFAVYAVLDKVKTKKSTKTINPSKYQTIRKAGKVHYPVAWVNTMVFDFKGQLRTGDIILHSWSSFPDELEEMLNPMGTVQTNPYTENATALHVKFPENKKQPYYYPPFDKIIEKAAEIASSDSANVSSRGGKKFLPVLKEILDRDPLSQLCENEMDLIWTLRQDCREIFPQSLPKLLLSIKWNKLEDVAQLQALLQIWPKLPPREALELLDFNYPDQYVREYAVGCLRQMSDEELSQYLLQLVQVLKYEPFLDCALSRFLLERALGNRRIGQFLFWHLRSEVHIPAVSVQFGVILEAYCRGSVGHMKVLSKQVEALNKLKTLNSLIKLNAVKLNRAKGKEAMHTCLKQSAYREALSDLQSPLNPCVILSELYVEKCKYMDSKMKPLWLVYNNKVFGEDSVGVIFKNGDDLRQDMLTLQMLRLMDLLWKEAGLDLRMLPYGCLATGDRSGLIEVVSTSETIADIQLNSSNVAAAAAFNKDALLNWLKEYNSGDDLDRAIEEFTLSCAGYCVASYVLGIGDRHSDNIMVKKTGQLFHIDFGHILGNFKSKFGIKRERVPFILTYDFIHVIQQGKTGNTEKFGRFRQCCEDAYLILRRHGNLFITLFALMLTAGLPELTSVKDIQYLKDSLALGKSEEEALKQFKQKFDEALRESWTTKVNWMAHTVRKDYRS
T2 sequence (P27986 whole entry partner): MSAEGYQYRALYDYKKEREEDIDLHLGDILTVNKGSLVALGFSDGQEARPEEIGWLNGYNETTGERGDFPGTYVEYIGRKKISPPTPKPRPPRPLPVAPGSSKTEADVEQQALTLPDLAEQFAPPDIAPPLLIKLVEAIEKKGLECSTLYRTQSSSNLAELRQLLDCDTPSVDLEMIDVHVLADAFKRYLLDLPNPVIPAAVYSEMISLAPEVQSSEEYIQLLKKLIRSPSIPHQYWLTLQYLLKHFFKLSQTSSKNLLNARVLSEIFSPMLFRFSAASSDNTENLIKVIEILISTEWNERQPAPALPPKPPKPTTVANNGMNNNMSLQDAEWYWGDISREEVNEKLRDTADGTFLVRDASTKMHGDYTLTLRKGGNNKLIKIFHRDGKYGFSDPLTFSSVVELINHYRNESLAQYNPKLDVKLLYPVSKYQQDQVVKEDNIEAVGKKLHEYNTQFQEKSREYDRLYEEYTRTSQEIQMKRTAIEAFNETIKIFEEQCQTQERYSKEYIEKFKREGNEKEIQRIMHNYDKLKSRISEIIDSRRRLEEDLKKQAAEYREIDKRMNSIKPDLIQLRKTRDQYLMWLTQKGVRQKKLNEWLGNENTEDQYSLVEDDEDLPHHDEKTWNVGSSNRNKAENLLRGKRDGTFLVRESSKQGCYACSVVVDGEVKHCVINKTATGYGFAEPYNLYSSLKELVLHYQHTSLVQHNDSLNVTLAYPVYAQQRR
T1 sequence (P42336 whole entry): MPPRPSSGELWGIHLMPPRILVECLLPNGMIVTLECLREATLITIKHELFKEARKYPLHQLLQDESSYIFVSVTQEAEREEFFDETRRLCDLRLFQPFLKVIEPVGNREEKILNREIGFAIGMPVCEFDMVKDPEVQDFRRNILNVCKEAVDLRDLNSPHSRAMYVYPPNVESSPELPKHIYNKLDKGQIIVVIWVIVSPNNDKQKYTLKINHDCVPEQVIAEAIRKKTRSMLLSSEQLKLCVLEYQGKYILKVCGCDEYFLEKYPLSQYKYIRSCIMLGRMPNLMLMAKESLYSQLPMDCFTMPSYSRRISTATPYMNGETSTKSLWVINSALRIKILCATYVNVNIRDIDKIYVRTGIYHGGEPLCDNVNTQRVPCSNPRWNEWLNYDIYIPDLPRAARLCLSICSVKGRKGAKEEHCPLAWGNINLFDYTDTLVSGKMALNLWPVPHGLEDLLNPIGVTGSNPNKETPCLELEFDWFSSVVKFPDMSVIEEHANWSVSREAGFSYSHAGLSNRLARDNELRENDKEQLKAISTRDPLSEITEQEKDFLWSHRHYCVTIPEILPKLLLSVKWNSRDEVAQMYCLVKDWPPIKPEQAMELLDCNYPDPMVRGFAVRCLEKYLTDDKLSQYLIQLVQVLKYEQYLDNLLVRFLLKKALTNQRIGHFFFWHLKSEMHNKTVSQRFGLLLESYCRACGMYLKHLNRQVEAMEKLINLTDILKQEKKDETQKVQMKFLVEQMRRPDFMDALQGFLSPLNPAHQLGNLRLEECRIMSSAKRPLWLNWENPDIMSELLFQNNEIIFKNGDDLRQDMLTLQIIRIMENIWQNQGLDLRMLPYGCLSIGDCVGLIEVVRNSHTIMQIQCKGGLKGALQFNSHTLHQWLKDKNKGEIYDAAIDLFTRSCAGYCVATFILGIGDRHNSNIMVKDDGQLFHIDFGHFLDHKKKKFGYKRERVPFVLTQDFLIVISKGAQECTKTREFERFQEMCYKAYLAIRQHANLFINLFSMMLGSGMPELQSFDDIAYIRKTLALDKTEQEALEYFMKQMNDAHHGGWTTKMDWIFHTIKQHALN
T1 sequence (P27986 whole entry partner): as the sequence (P27986 whole entry partner) above
T4 sequence (O00329 whole entry): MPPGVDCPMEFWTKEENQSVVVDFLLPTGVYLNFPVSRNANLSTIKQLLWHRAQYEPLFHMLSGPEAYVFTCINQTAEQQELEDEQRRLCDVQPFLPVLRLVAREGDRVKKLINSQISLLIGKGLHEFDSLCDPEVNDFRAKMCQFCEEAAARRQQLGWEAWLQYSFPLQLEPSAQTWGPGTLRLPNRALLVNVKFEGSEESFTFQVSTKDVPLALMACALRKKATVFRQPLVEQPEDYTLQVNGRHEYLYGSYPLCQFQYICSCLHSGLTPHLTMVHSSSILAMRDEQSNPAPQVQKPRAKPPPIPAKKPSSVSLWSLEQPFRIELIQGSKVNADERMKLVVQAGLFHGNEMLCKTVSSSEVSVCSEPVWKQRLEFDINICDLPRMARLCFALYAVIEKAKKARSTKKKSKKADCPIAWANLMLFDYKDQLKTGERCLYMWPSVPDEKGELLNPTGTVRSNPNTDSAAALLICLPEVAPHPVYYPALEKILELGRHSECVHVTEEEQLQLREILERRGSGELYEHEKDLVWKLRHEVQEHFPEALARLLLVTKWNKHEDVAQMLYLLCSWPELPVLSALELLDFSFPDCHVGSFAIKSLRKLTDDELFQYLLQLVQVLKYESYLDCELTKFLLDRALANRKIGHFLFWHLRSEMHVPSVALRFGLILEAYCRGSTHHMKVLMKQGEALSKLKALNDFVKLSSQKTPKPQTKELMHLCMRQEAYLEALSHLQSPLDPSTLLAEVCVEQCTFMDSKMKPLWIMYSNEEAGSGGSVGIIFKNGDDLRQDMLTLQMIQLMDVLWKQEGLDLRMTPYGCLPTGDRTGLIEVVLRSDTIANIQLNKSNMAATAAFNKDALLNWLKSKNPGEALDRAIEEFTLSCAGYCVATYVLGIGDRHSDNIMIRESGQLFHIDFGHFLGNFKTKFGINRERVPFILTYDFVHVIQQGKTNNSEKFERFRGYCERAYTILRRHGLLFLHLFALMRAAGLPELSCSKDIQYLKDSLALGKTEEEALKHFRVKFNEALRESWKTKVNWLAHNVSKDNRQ
T4 sequence (P27986 whole entry partner): as the sequence (P27986 whole entry partner) above

Q: What does the source list for `C[C@H](Nc1ccc2c(c1)OCCn1cc(N3C(=O)CN(C)C[C@H]3C(F)F)nc1-2)C(N)=O` [Example 69, (S)-2-((2-((S)-2-(difluoromethyl)-4-methyl-6-oxopiperazin-1-yl)-5,6-dihydrobenzo[f]imidazo[1,2-d][1,4]oxazepin-9-yl)amino)propanamide]?
A: IC50 [1]: 2.1 nM; Selectivity of PI3Kα vs PI3Kβ [1]: 1514; Selectivity of PI3Kα vs PI3Kγ [1]: 158; Selectivity of PI3Kα vs PI3Kδ [1]: 68; IC50 [2]: 3180 nM; IC50 [3]: 332 nM; IC50 [4]: 142 nM; IC50 [5]: 601 nM; IC50 [6]: 584 nM; IC50 [7]: 433 nM

Q: Which results are given for `C[C@H](Nc1ccc2c(c1)OCCn1cc(N3C(=O)OC[C@H]3CC#N)nc1-2)C(N)=O` [Example 118, (S)-2-((2-((R)-4-(cyanomethyl)-2-oxooxazolidin-3-yl)-5,6-dihydrobenzo[f]imidazo[1,2-d][1,4]oxazepin-9-yl)amino)propanamide]?
A: IC50 [1]: 1.3 nM; Selectivity of PI3Kα vs PI3Kβ [1]: 146; Selectivity of PI3Kα vs PI3Kγ [1]: 57; Selectivity of PI3Kα vs PI3Kδ [1]: 38; IC50 [2]: 190 nM; IC50 [3]: 74 nM; IC50 [4]: 50 nM; IC50 [5]: 140 nM; IC50 [6]: 398 nM; IC50 [7]: 371 nM

Q: Which results are given for `C[C@H](Nc1ccc2c(c1)OCCn1cc(N3C(=O)SC[C@H]3C(F)F)nc1-2)C(N)=O` [Example 51, (S)-2-((2-((R)-4-(difluoromethyl)-2-oxothiazolidin-3-yl)-5,6-dihydrobenzo[f]imidazo[1,2-d][1,4]oxazepin-9-yl)amino)propanamide]?
A: IC50 [1]: 0.2 nM; Selectivity of PI3Kα vs PI3Kβ [1]: 840; Selectivity of PI3Kα vs PI3Kγ [1]: 450; Selectivity of PI3Kα vs PI3Kδ [1]: 245; IC50 [2]: 168 nM; IC50 [3]: 90 nM; IC50 [4]: 49 nM; main target organs of the toxicity ([8]; SD rats): gastrointestinal tissues (such as stomach and cecum) and immune tissues (such as thymus); tolerance compared with GDC-0077 ([8]; SD rats): better than that of GDC-0077; Blood biochemistry ([8]; SD rats, 10, 30 and 60 mg/kg): In 60 mg/kg group, AST, Glu and UREA increased in both male and female animals; in 30 mg/kg group, AST and UREA increased in both male and female animals, and Glu increased in male animals; and in 10 mg/kg group, AST increased in both male and female animals; Blood cell counting and coagulation function ([8]; SD rats, 10, 30 and 60 mg/kg): In each dose group, Retic decreased in both male and female animals; and in 30 mg/kg group and 60 mg/kg group, Neut increased and PLT decreased in both male and female animals; Pathology, pathological changes under the microscope ([8]; SD rats, 10, 30 and 60 mg/kg): bleeding and atrophy of glandular gastric mucosa; bleeding of cecal mucosa, atrophy of goblet cell, atrophy of colonic mucosa goblet cell; atrophy of splenic white pulp; and atrophy of thymic cortex or cortex and medulla, increase in tingible body macrophages and the like; Body weight and food intake [8, 11]: In the low-dose, middle-dose and high-dose groups, the final body weight declined, and the corresponding food intake also declined; Clinical observation [8, 11]: In the middle-dose and high-dose groups, abnormal symptoms such as arched back, loose stools, perianal contamination and fluffy coat were observed; Near-death/death ([8]; SD rats, dose of 60 mg/kg): near-dead/dead animals were found; lethal dose ([8]; SD rats, intragastric once/day for 7 days): 60 mg/kg; MTD at 7 days ([8]; both sexes, Sprague-Dawley, rat, in vivo, po, SD rats, intragastric once/day for 7 days, read-out: maximum tolerated dose (MTD)): 30 mg/kg; Cmax and AUC(0-24h) compared with GDC-0077 ([9]; 30 mg/kg): significantly higher than those of GDC-0077; AUC ([9]; 10 mg/kg intragastric once a day, female): 3170 ng·h/mL; AUC ([9]; 10 mg/kg intragastric once a day, male): 2110 ng·h/mL; AUC ([9]; 30 mg/kg intragastric once a day, female): 15900 ng·h/mL; AUC ([9]; 30 mg/kg intragastric once a day, male): 11400 ng·h/mL; system exposure compared with GDC-0077 ([9]; same dose): significantly higher than that of GDC-0077 at the same dose; AUC(0-t) ([10]; read-out: Area under curve AUC0-t): 2180 ng·h/mL; AUC(0-inf) ([10]; read-out: Area under curve AUC0-∞): 2270 ng·h/mL; half-life ([10]; read-out: Half-life t1/2(h) (converted)): 1.6 h; MRT ([10]; read-out: Mean residence time MRT): 2.2 h; Tmax ([10]; read-out: Peak time tmax): 0.5 h; Cmax ([10]; read-out: Plasma concentration Cmax): 1060 ng/mL
